Measured values taken from ChEMBL document CHEMBL1201862, “PubChem BioAssay data set” (2004).
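Grown in 96-well plates, cells were treated for 48 hours with each compound at five concentrations. Insufficient inhibition: endpoint recorded as highest concentration tested. GI50 = concentration required for 50% inhibition of growth.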 Calls of active or inactive are those of the source. No stated cut-off is given here; in the data, active = GI50 up to about 1.1 µM and inactive = higher.

Key:
Test in all cases: DTP human tumour cell line panel, 48 h
[1] = system: SF-539
[2] = system: HCT-15
[3] = system: LOX IMVI
[4] = system: HCT-116
[5] = system: Malme-3M
[6] = system: IGROV-1
[7] = system: HOP-62
[8] = system: A549
[9] = system: HCC 2998
[10] = system: NCI-H522
[11] = system: MCF7
[12] = system: MDA-MB-231
[13] = system: MDA-MB-435
[14] = system: OVCAR-3
[15] = system: MOLT-4
[16] = system: SK-MEL-5
[17] = system: TK-10
[18] = system: COLO 205
[19] = system: OVCAR-5
[20] = system: NCI/ADR-RES

SMILES	GI50 [1]	GI50 [2]	GI50 [3]	GI50 [4]	GI50 [5]	GI50 [6]	GI50 [7]	GI50 [8]	GI50 [9]	GI50 [10]	GI50 [11]	GI50 [12]	GI50 [13]	GI50 [14]	GI50 [15]	GI50 [16]	GI50 [17]	GI50 [18]	GI50 [19]	GI50 [20]
Oc1ccccc1C(c1cc2c(cc1O)OCO2)N1CCOCC1 (stereo not given)	20.7 µM (inactive)	16.4 µM	17.1 µM (inactive)	17.7 µM (inactive)	17.8 µM (inactive)	19.4 µM (inactive)	38.8 µM (inactive)	23 µM (inactive)	18.7 µM (inactive)	10.2 µM (inactive)	19.4 µM (inactive)	21 µM (inactive)	18.2 µM (inactive)	17.5 µM (inactive)	8.24 µM (inactive)	17.3 µM (inactive)	> 10 µM (inactive)	18.7 µM (inactive)	25 µM (inactive)	–
CC1(C)CCCC2(C)C3C(O)CC2(C)C(O)C31 (stereo not given)	> 100 µM (inactive)	> 100 µM	> 100 µM (inactive)	> 100 µM (inactive)	> 100 µM (inactive)	> 100 µM (inactive)	> 100 µM (inactive)	> 100 µM (inactive)	> 100 µM (inactive)	> 100 µM (inactive)	–	–	–	> 100 µM (inactive)	> 100 µM (inactive)	> 100 µM (inactive)	> 100 µM (inactive)	> 100 µM (inactive)	> 100 µM (inactive)	–
O=C(O)C12C3CCC(O3)C1(C(=O)O)C1CCC2O1 (stereo not given)	> 100 µM (inactive)	> 100 µM	> 100 µM (inactive)	> 100 µM (inactive)	> 100 µM (inactive)	> 100 µM (inactive)	> 100 µM (inactive)	> 100 µM (inactive)	> 100 µM (inactive)	> 100 µM (inactive)	> 100 µM (inactive)	–	> 100 µM (inactive)	> 100 µM (inactive)	> 100 µM (inactive)	> 100 µM (inactive)	> 100 µM (inactive)	> 100 µM (inactive)	> 100 µM (inactive)	> 100 µM (inactive)
Clc1cccc(N2CCN(CCN3CCc4c([nH]c5ccccc45)C3c3cccnc3)CC2)c1 (stereo not given)	33.5 µM (inactive)	8.81 µM	> 50.2 µM (inactive)	31.8 µM (inactive)	> 66.8 µM (inactive)	9.59 µM (inactive)	> 45.6 µM (inactive)	> 94.6 µM (inactive)	22.5 µM (inactive)	65.5 µM (inactive)	19.2 µM (inactive)	–	> 100 µM (inactive)	58.5 µM (inactive)	> 71.6 µM (inactive)	97.7 µM (inactive)	> 100 µM (inactive)	> 33.7 µM (inactive)	> 57.3 µM (inactive)	> 100 µM (inactive)
CC(=O)OC[C@H]1CN(OC(C)=O)C[C@@H](n2cc(C)c(=O)[nH]c2=O)O1	> 100 µM (inactive)	> 100 µM	–	> 100 µM (inactive)	–	> 100 µM (inactive)	> 100 µM (inactive)	> 100 µM (inactive)	> 100 µM (inactive)	–	> 100 µM (inactive)	> 100 µM (inactive)	> 100 µM (inactive)	–	> 100 µM (inactive)	> 100 µM (inactive)	> 100 µM (inactive)	> 100 µM (inactive)	> 100 µM (inactive)	–
O=C1c2ccccc2C2(O)N(c3ccccc3)C(=S)N(c3ccccc3)C12O (stereo not given)	> 100 µM (inactive)	> 100 µM	> 100 µM (inactive)	> 100 µM (inactive)	> 100 µM (inactive)	> 100 µM (inactive)	> 100 µM (inactive)	> 100 µM (inactive)	> 100 µM (inactive)	> 100 µM (inactive)	–	–	–	> 100 µM (inactive)	> 100 µM (inactive)	> 100 µM (inactive)	> 100 µM (inactive)	> 100 µM (inactive)	> 100 µM (inactive)	–
O=C1CN(c2ccccc2)C(=O)CN1CCN1CC(=O)N(c2ccccc2)CC1=O	> 100 µM (inactive)	> 100 µM	–	> 100 µM (inactive)	> 100 µM (inactive)	> 100 µM (inactive)	> 100 µM (inactive)	> 100 µM (inactive)	> 100 µM (inactive)	> 100 µM (inactive)	> 100 µM (inactive)	–	> 100 µM (inactive)	> 100 µM (inactive)	> 10 µM (inactive)	> 100 µM (inactive)	> 100 µM (inactive)	> 100 µM (inactive)	> 100 µM (inactive)	–
COc1cc(C2C(Cl)C(=O)N2NC(=O)c2ccc(NC(C)=O)cc2OC)ccc1O (stereo not given)	19.1 µM (inactive)	19.5 µM	7.28 µM (inactive)	16.9 µM (inactive)	24.4 µM (inactive)	17.5 µM (inactive)	–	32.1 µM (inactive)	–	8.45 µM (inactive)	19.3 µM (inactive)	–	28 µM (inactive)	21.4 µM (inactive)	3.96 µM (inactive)	15.2 µM (inactive)	–	14.9 µM (inactive)	13.2 µM (inactive)	37.5 µM (inactive)
COC1CC(O)C(OC(=O)c2ccccc2)C(C)O1 (stereo not given)	> 100 µM (inactive)	> 100 µM	> 100 µM (inactive)	> 100 µM (inactive)	> 100 µM (inactive)	> 100 µM (inactive)	> 100 µM (inactive)	> 100 µM (inactive)	> 100 µM (inactive)	> 100 µM (inactive)	–	–	–	> 100 µM (inactive)	> 100 µM (inactive)	> 100 µM (inactive)	> 100 µM (inactive)	> 100 µM (inactive)	> 100 µM (inactive)	–
O=c1cc(-c2ccccc2)oc2cc(Oc3nnnn3-c3ccccc3)ccc12	22.4 µM (inactive)	29 µM	38.9 µM (inactive)	34.6 µM (inactive)	33.4 µM (inactive)	98.4 µM (inactive)	93.8 µM (inactive)	31.6 µM (inactive)	> 100 µM (inactive)	36.1 µM (inactive)	16.3 µM (inactive)	42.6 µM (inactive)	15.5 µM (inactive)	55.6 µM (inactive)	32.4 µM (inactive)	15.1 µM (inactive)	67 µM (inactive)	35.1 µM (inactive)	–	–
Cc1cc(Cl)ccc1/N=N/C(=O)NNc1ccc(Cl)cc1C	–	12.2 µM	16.9 µM (inactive)	13.4 µM (inactive)	21 µM (inactive)	6.62 µM (inactive)	11.5 µM (inactive)	12.9 µM (inactive)	11.5 µM (inactive)	20.3 µM (inactive)	–	11.7 µM (inactive)	20.7 µM (inactive)	17.2 µM (inactive)	14 µM (inactive)	13.9 µM (inactive)	18.2 µM (inactive)	–	15.8 µM (inactive)	–
CN1CCc2cc3c4cc2C1Cc1ccc(cc1)Oc1cc(ccc1O)CC1c2c(cc(O)c(c2O4)O3)CCN1C (stereo not given)	1.67 µM (inactive)	1.91 µM	1.66 µM (inactive)	1.41 µM (inactive)	1.81 µM (inactive)	4.43 µM (inactive)	5.4 µM (inactive)	2.45 µM (inactive)	2.06 µM (inactive)	2.79 µM (inactive)	–	–	–	3.94 µM (inactive)	2.03 µM (inactive)	2.39 µM (inactive)	10.6 µM (inactive)	5.65 µM (inactive)	8.2 µM (inactive)	–
O=C(c1ccccc1)N1C(=O)N(c2ccccc2)C(=N/c2ccccc2)/C1=N\c1ccccc1	> 100 µM (inactive)	64 µM	9.25 µM (inactive)	47.9 µM (inactive)	69 µM (inactive)	> 100 µM (inactive)	52.4 µM (inactive)	42.2 µM (inactive)	28.8 µM (inactive)	11 µM (inactive)	–	> 100 µM (inactive)	> 100 µM (inactive)	–	19.5 µM (inactive)	> 100 µM (inactive)	> 100 µM (inactive)	70.5 µM (inactive)	99.1 µM (inactive)	> 100 µM (inactive)
Cc1ccc(S(=O)(=O)OCC/C(=C\[Si](C)(C)C)c2ccccc2)cc1	> 100 µM (inactive)	> 100 µM	> 100 µM (inactive)	> 100 µM (inactive)	> 100 µM (inactive)	> 100 µM (inactive)	> 100 µM (inactive)	> 100 µM (inactive)	> 100 µM (inactive)	> 100 µM (inactive)	–	–	–	> 100 µM (inactive)	> 100 µM (inactive)	> 100 µM (inactive)	> 100 µM (inactive)	> 100 µM (inactive)	> 100 µM (inactive)	–
COc1cc(CCCOC(=O)/C=C/c2ccc(O)c(O)c2)cc(O)c1O	28.4 µM (inactive)	91.8 µM	17.6 µM (inactive)	17.7 µM (inactive)	74 µM (inactive)	80.2 µM (inactive)	> 100 µM (inactive)	69.2 µM (inactive)	> 100 µM (inactive)	15 µM (inactive)	24.8 µM (inactive)	28.8 µM (inactive)	28.6 µM (inactive)	42.1 µM (inactive)	27.5 µM (inactive)	31.2 µM (inactive)	> 100 µM (inactive)	94.6 µM (inactive)	> 100 µM (inactive)	–
COC(=O)Nc1nc2cc(C(=O)c3cccs3)ccc2[nH]1 [NOCODAZOLE]	–	0.0198 µM	0.0214 µM (active)	0.0152 µM (active)	0.0272 µM (active)	0.0242 µM (active)	0.0287 µM (active)	0.0186 µM (active)	–	–	0.0422 µM (active)	0.171 µM (active)	0.0111 µM (active)	–	0.0205 µM (active)	–	2.95 µM (inactive)	0.0194 µM (active)	20.7 µM (inactive)	–
